In patent US20160089464A1, “MALODOR REDUCTION COMPOSITIONS” (The Procter & Gamble Company, priority 2014, published 2016):

experiment: Comment Code material properties: vapor pressure, ClogP, probability of ingredient color instability, odor detection threshold, melamine formaldehyde PMC headspace response ratio and leakage, liquid dish neat product liquid-air partition coefficient; assay type: physicochemical; details: Table 1 materials; each letter of the code is one property class (vapor pressure, ClogP, color instability, odor detection threshold, PMC headspace ratio, PMC leakage, liquid dish liquid-air partition coefficient)

| Structure (SMILES) | Comment Code |
| --- | --- |
| CC1=CCC(C23CCCC(C)(C2)OC3)C1(C)C (stereo not shown) [Material 571] | DFHJ |
| C=C1CCCC(C)(C)C1C=C(C)C(C)=O (stereo not shown) [Material 913] | BDHIJK |
| C=C(C)C1CC=C(C=O)CC1 (stereo not shown) [Material 946] | ACHIJK |
| COC1CC2CC1C1CC(C=O)CC21 (stereo not shown) [Material 1026] | CHJK |
| C/C=C/c1cc(OC)c(OC)cc1OC [Material 924] | BCFGJK |
| CCC(O)COC1CCCCC1C(C)(C)C (stereo not shown) [Material 677] | DEFHJK |
| CC(=O)C=CC1C(C)=CCC(C)C1(C)C (stereo not shown) [Material 704] | BDHJK |
| C=CCOC(=O)CCC1CCCCC1 [Material 746] | BDEFHJK |
| CCCCCCCC#N [Material 578] | ACEFGIKL |
| C=CC(C)=CCC=C(C)CCC=C(C)C [Material 710] | DEFHJK |
| C=CCCC(=O)C1=CCCC2(CCCC2)C1 [Material 1038] | DGJK |
| COc1cc(C)ccc1C(C)C [Material 1062] | ADHIJKL |
| CC12CCC(C(=O)C1=O)C2(C)C (stereo not shown) [Material 587] | ACEFGIJK |
| CC(=O)OC(C)CCC=C(C)CCC=C(C)C (stereo not shown) [Material 881] | DEFHJK |
| Cc1ncsc1CCO [Material 1042] | CGIKL |
| CC1=CCCC2(C)CCC(C(C)(C)O)CC12 (stereo not shown) [Material 775] | DEFHJK |
| CCCCCC=CC=CC(=O)OCC [Material 951] | BDEFHJK |
| CC(C)=CCCC(C)CCCC(C)C=O (stereo not shown) [Material 757] | BDFHJK |
| C=CCc1ccc2c(c1)OCO2 [Material 1021] | BCEFHK |
| CCCCC/C=C/C=C\C(=O)OCC [Material 942] | BDEFHJK |
| CC(C)Cc1ccc2ccccc2n1 [Material 849] | CEFHJK |
| COC(=O)c1ccccc1NC(O)CC(C)c1ccccc1 (stereo not shown) [Material 1093] | DFHJ |
| CC1=CC2C(C(C)C)CCC(C)(O)C2CC1 (stereo not shown) [Material 716] | DEFHJK |
| Cc1coc2c1CCC(C)C2 (stereo not shown) [Material 802] | BCEFHIJKL |
| CC1=CCCC2(C)CCC(=C(C)C)CC12 (stereo not shown) [Material 1031] | DEFHJKL |
| OCCc1ccccc1 [Material 955] | BCEFGIK |
| CC1=CC2C(C(C)C)CCC(C)(O)C2CC1 (stereo not shown) [Material 1047] | DEFHJK |
| CCCCCCCC=CC=O [Material 856] | ADHKL |

Second part, the compound after the results:

| Comment Code | Structure (SMILES) |
| --- | --- |
| ADEFHJKL | C=CC=CC=CCCCCC [Material 876] |
| BDEFHJK | CCC=CCC=CC=CC(=O)OCC [Material 1000] |
| DEFHJ | CCCCCCCCCCCCCCCCCC(=O)OCCCC [Material 594] |
| BCEFGIJKL | C=C1C(O)CC2CC1C2(C)C (stereo not shown) [Material 974] |
| ACEFGIKL | CCCOC(C)OCCC [Material 767] |
| BCEFGJK | CC1=CCOC(c2ccccc2)C1 (stereo not shown) [Material 1016] |
| DEFHJKL | CC1=CC2C(CC1)C(C)=CCC2C(C)C (stereo not shown) [Material 698] |
| ADEFHIJKL | CC(=O)OC1CC2CCC1(C)C2(C)C (stereo not shown) [Material 604] |
| DHJ | CCCCCC(C=O)=Cc1ccc(C)cc1 [Material 769] |
| BDHJK | CCC(=O)C=CC1C(C)=CCCC1(C)C (stereo not shown) [Material 700] |
| BCHIJK | CC1=CCC(O)(C(C)C)CC1 (stereo not shown) [Material 791] |
| ADHIJKL | CC1C(C)(C)c2ccccc2C1(C)C [Material 879] |
| BDFGJK | CC(C)CCCC(C)CCCC(C)C=O (stereo not shown) [Material 741] |
| DEFHJK | CCCCCOC(=O)C=Cc1ccccc1 [Material 671] |
| DEFHJK | CCCCCCCCCC(=O)O [Material 582] |
| ADEFHIJKL | CC(=O)OC1C2(C)CCC(C2)C1(C)C (stereo not shown) [Material 878] |
| BCEFHJK | COCCOC(C)OCc1ccccc1 (stereo not shown) [Material 768] |

| Comment Code | Structure (SMILES) |
| --- | --- |
| BCEFHIJKL | C=C1C(O)CC2(C(C)C)CC12 (stereo not shown) [Material 1020] |
| DEFHJK | CC(=O)O[C@]1(C)CC[C@@]23C[C@@H]1C(C)(C)[C@@H]2CC[C@H]3C [Material 567] |
| BDEFHJKL | CC1=C2C(CC1)C(C)CCC1C2C1(C)C (stereo not shown) [Material 708] |
| BDEFGJKL | CC1CCC2=C1CC1CCC2(C)C1(C)C (stereo not shown) [Material 621] |
| BCGI | COc1ccc(C=O)c(OC)c1OC [Material 733] |
| DEFHJK | CC1=CCCC(C)=CCC(C)(C)C=CC1 [Material 706] |
| BDFHIJKL | CC1=CCCC(C)(C)C12CCC(C)O2 (stereo not shown) [Material 1057] |
| ADEFHIJKL | CCC(C)CCC(C)(CC)OC(C)=O (stereo not shown) [Material 821] |
| CEFHJK | CCCOC(C)OCCc1ccccc1 (stereo not shown) [Material 766] |
| BCHIK | CC(C)=CCC/C(C)=C/CO [Material 1082] |
| ADEFHJK | COC1(C)CCC23CC1C(C)(C)C2CCC3C (stereo not shown) [Material 565] |
| DHJK | CC(=O)C1CC/C(C)=C\CC/C(C)=C\C/C=C/1C (stereo not shown) [Material 1095] |
| DHJK | CC1=CC(=O)CC(C)C12CCC(=C(C)C)C2 (stereo not shown) [Material 610] |
| ADEFGIJKL | C=C1CC2CCC1C2(C)C (stereo not shown) [Material 711] |
| BDEFHJK | CC1C(=O)CC2(C)CCCC(C)(C)C23CC13 (stereo not shown) [Material 804] |
| BDHJK | C=CCCC(=O)C1=CCCC(C)(C)C1 [Material 697] |
| BDEFHJKL | CC(C)=CCCC1(C)C2CC=C(C)C1C2 (stereo not shown) [Material 720] |

same assay, conditions: cell strings several class symbols together; each letter is one property class of L1

| Structure (SMILES) | Comment Code |
| --- | --- |
| CC1=CCC(C=CC(C)(C)C(C)O)C1(C)C (stereo not shown) [Material 53] | CEFHJ |
| O=C(O)CCc1ccccc1 [Material 255] | CEFHIK |
| COc1ccc(CC(C)=O)cc1 [Material 983] | BCEFHK |
| CC(=O)OC(C)(C)C1CCC(C)CC1 (stereo not shown) [Material 447] | BDEFHIJKL |
| CC1COCc2cc3c(cc21)C(C)(C)C(C)C3(C)C (stereo not shown) [Material 335] | DEFHJK |
| CC(C)=CCCC(C)CC=O (stereo not shown) [Material 518] | ACHIJKL |
| CC=CCOCC/C=C\CC [Material 19] | ADEFHJKL |
| C=CCCC(=O)C1=CCCC2(CCCC2)C1 [Material 1038] | DGJK |
| O=COCCc1ccccc1 [Material 956] | ACEFHK |
| CC(=O)C(C)O (stereo not shown) [Material 760] | ACEFGIKL |
| C/C=C(\C)C(=O)OCC/C=C\CC [Material 536] | BDEFHJK |
| CCCCOC(=O)c1ccccc1C(=O)OCCCC [Material 455] | DEFHJ |
| C=C(C)C1CCC(C)(O)C1C (stereo not shown) [Material 981] | BCEFGIJKL |
| CCCCCCOC(=O)C(C)CC (stereo not shown) [Material 273] | BDEFHJKL |
| COC(=O)C=C(C)CCC=C(C)C [Material 111] | BCHJKL |
| CC(C)=CCCC(C)CCOC(=O)Cc1ccccc1 (stereo not shown) [Material 510] | DFHJ |

Next, values leading:

| Comment Code | Structure (SMILES) |
| --- | --- |
| ACHIJKL | Cc1csc(C(C)C)n1 [Material 848] |
| ACEFHIJKL | CCCC(C)(S)CO (stereo not shown) [Material 1098] |
| BDEFHJKL | CCOC(=O)OC1C(C)CCC(C)C1C (stereo not shown) [Material 1005] |
| DFHJ | CC(C)=CCC/C(C)=C/COC(=O)c1ccccc1 [Material 310] |
| ACEFGIJKL | CC12CCC(CC1=O)C2(C)C (stereo not shown) [Material 588] |
| BCHIK | COc1cc(C)cc(O)c1 [Material 811] |
| ACEFHIKL | CC/C=C\CCOC(=O)CC [Material 538] |
| ADEFHIKL | CCCCCCOC(=O)CC [Material 264] |
| DEFGJK | CC1CCCCCCCCCCCCC(=O)C1 (stereo not shown) [Material 206] |
| BCHIJKL | C=C(C)CCC[C@H](C)CCO [Material 1004] |
| BDHJK | C=CC(C)(CCC=C(C)C)OC(C)=O (stereo not shown) [Material 154] |
| ACEFGIJKL | CC1(C)C2CCC3(CO3)C1C2 (stereo not shown) [Material 617] |
| BCEFHJK | CC(C)=CCC/C(C)=C\COC=O [Material 59] |
| DHJK | C=C(C)C(=O)OCCc1ccccc1 [Material 971] |
| ACEFGIJK | CNC(=O)C(C)(C(C)C)C(C)C [Material 846] |
| BCEFHK | CCOC(=O)C=Cc1ccccc1 [Material 400] |
| BCEFHIK | COc1ccc(C(C)=O)cc1 [Material 761] |
| DEFHJK | CC(=O)O[C@]1(C)CC[C@@]23C[C@@H]1C(C)(C)[C@@H]2CC[C@H]3C [Material 567] |

| Comment Code | Structure (SMILES) |
| --- | --- |
| ACEFHIKL | CC/C=C\CCO [Material 542] |
| ADEFGIJKL | C=C1C=CC(C(C)C)CC1 (stereo not shown) [Material 619] |
| BDEFHIJK | CCC(C)(C)C1CCC(O)CC1 (stereo not shown) [Material 995] |
| BDEFHJKL | CC1=C2C(CC1)C(C)CCC1C2C1(C)C (stereo not shown) [Material 708] |
| BDEFGJKL | CC1CCC2=C1CC1CCC2(C)C1(C)C (stereo not shown) [Material 621] |
| BDEFHJK | C=CC(C)(CCC=C(C)C)OC(=O)CCC (stereo not shown) [Material 151] |
| BDFGIJKL | CCCCCC1(C)CCC(C)(C)C1=O (stereo not shown) [Material 1115] |
| BDEFHJKL | C/C=C(\C)C(=O)OCCCCCC [Material 909] |
| BCGK | C=CCOC(=O)COc1ccccc1 [Material 743] |
| ACEFGIK | CC(=O)CCc1ccccc1 [Material 640] |
| ADGIJKL | CC(C)CCCC(C)CC=O (stereo not shown) [Material 27] |
| DEFHJK | CCC(=O)OC1CC2C3C=CCC3C1C2(C)C (stereo not shown) [Material 343] |
| BDEFHJK | COC1(C)CCC23CC1C(C)(C)C2CCC3C (stereo not shown) [Material 565] |
| CFHIJK | CC12CCCC(C)(CC1)C2=NO [Material 921] |
| DEFHJ | CCCCCCCC(=O)OC/C=C(\C)CCC=C(C)C [Material 308] |
| BDEFHJK | CC1C(=O)CC2(C)CCCC(C)(C)C23CC13 (stereo not shown) [Material 804] |
| ADGIJKL | CC(C)C12CCC(C)(CC1)O2 [Material 875] |

same assay, conditions: letter codes A-L: vapor pressure, ClogP, probability of ingredient color instability, odor detection threshold, PMC headspace response ratio, PMC leakage, liquid dish liquid-air partition coefficient; Table 1 materials with at least one MORV from 1 to 5

| Structure (SMILES) | Comment Code |
| --- | --- |
| COC(=O)OC1CC/C=C\CCC1 (stereo not shown) [Material 1139] | BCHJKL |
| COC(=O)c1ccccc1N=CC(C)Cc1ccc(C(C)(C)C)cc1 (stereo not shown) [Material 1121] | DFHJ |
